The source made the active and inactive calls. No cut-off for these calls is given here.

Sequence of Autoinducer 2-binding periplasmic protein LuxP (P54300 whole entry): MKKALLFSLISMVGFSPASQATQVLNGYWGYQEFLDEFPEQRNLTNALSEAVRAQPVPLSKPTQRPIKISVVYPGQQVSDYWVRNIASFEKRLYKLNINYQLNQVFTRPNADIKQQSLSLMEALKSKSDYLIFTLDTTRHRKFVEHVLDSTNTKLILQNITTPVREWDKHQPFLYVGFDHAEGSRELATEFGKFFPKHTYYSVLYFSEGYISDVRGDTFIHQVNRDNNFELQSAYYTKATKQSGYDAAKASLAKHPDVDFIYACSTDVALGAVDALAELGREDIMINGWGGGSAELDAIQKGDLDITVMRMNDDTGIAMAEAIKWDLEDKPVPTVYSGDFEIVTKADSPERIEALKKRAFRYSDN

One assay concerns the target Autoinducer 2-binding periplasmic protein LuxP (Vibrio harveyi, UniProt P54300). Kind of assay: Antagonist activity at LuxP receptor in Vibrio harveyi MM32 assessed as inhibition of autoinducer-2-mediated quorum sensing after 3 to 4 hrs. The class given is functional.
Regarding `NCCc1cc(O)c(O)c(O)c1`, the concentration for half-maximal inhibition (IC50) – broadly, the concentration at which inhibition is half-maximal – is 22 µM.

On to `O=c1ccc2ccc(O)c(O)c2o1` [DAPHNETIN], for which the IC50 is 12 µM.

As to `Oc1cccc(O)c1O` [PYROGALLOL], the concentration for half-maximal inhibition (IC50) is 2 µM.

As to `O=C(O)c1ccc(O)c(O)c1O`, the IC50 was determined as 61 µM.

Regarding `O=Cc1ccc(O)c(O)c1O`, the IC50 came to 4 µM.

Consider `O=C(c1ccccc1)c1ccc(O)c(O)c1O`, for which the IC50 is 4 µM.

On to `O=Cc1cc(O)c(O)c(O)c1`, for which the half-inhibitory concentration (IC50) was found to be 12 µM.

Consider `Oc1ccccc1O` [CATECHOL], for which the half-inhibitory concentration (IC50) is 59 µM.

`CC(=O)c1ccc(O)c(O)c1O` [GALLACETOPHENONE]: the IC50 stood at 21 µM.

As for `O=C(O)c1cc(O)c(O)c(O)c1` [GALLIC ACID], the IC50 worked out at 50 µM.

The next assay has as its system Vibrio harveyi. Kind of assay: Growth inhibition of Vibrio harveyi assessed as time required to double bacterial growth at 20 uM. The class given is functional.
Regarding `Oc1cccc(O)c1O` [PYROGALLOL], the Time came to 82 min.

The subject of another assay is Vibrio harveyi. Nature of the assay: Growth inhibition of Vibrio harveyi assessed as time required to double bacterial growth relative to control. In kind it is functional, organism-based.
For `O=c1ccc2ccc(O)c(O)c2o1` [DAPHNETIN], the outcome was inactive.

`O=C(O)c1ccc(O)c(O)c1O`: the result was inactive.

In the case of `O[C@@H]1CCC[C@@H]1O`, the result was inactive.

Consider `N#CC(C#N)=Cc1cc(O)c(O)c(O)c1`, for which the result was inactive.

Regarding `O=Cc1ccc(O)c(O)c1O`, the result was inactive.

`O=C(c1ccccc1)c1ccc(O)c(O)c1O`: the outcome was inactive.

Take `O=Cc1cc(O)c(O)c(O)c1`: the result was inactive.

As for `Oc1cccnc1O`, the result was inactive.

On to `Oc1ccccc1O` [CATECHOL], for which the result was inactive.

On to `CC(=O)c1ccc(O)c(O)c1O` [GALLACETOPHENONE], for which the outcome was inactive.

Turning to `O=C(O)c1cc(O)c(O)c(O)c1` [GALLIC ACID], the outcome was inactive.

As for `CCOC(=O)c1oc(C(=O)OCC)c(O)c1O`, the result was inactive.

Source of the values: ChEMBL document CHEMBL1141519, “Pyrogallol and its analogs can antagonize bacterial quorum sensing in Vibrio harveyi” (Bioorg Med Chem Lett, 2008).
